Assay [1] relates to CD8+ T cells of healthy donors. Nature of the assay: Priming of high-avidity CD8+ T cells with low density pMHC beads, tetramer staining and FACS sorting. The assay is classed as cell-based, human. As to conditions: for establishment of specific high-avidity T-cell lines by FACS: healthy donors; for in vitro immunogenicity with low pMHC density aAPCs: low density beads (2 ng relevant pMHC). The source says:
Dependent on their ability to be activated by high- or low-density antigen, T cell lines can be divided into high- or low-avidity. As it has been shown before (Walter, S, et al., 2003, J. Immunol., 171, 4974-4978), human high-avidity CTLs can be raised successfully by using less peptide for activation compared to low-avidity CD8+ T cells.
To determine the ability of peptides to generate high-avidity CTL lines, isolated human CD8+ cells were primed and expanded by repeated in vitro stimulations with beads coated with low-density pMHC (peptide-MHC-complex) and anti-CD28 antibody in the presence of IL-12 and IL-2. After three stimulations, a fraction of in vitro primed T cells were pMHC-tetramer stained and detected by cytometric analysis. Tetramer-positive cells of each donor were pooled afterwards according to the antigen specificity, stained with pMHC-tetramer and human anti-CD8-FITC antibody and finally subjected to FACS sorting on a FACSAria. Sorted cells were cultured and expanded in the presence of irradiated feeder cells, cytokines and mitogen. As a read-out for the generation of primed high avidity antigen specific cells, pMHC-tetramer staining was performed. In order to determine their functionality, IFNγ production was assayed by ELISPOT and killing of tumor cell lines was examined using a cytotoxicity assay based on live/dead staining after restimulation of the cells with the corresponding peptide and tumor cell lines.
In vitro stimulations using artificial antigen presenting cells (aAPC) loaded with peptide-MHC complex (pMHC) and anti-CD28 antibody were conducted as described above. The only difference to the method described above was the fact that stimulations were performed with beads loaded with 2 ng relevant plus 200 ng irrelevant library (pMHC) MHC (low density beads) instead of 200 ng relevant MHC (high density beads). Thus, predominantly high avidity T cells were generated for deeper validation of peptides. After three stimulations, a fraction of in vitro primed T cells was pMHC-tetramer stained and detected by cytometric analysis. […] Tetramer-positive cells of each donor were pooled afterwards according to the antigen specificity, stained with the corresponding pMHC-tetramer and human anti-CD8-FITC antibody clone SK1 and finally subjected to FACS sorting on a FACSAria (BD Biosciences, Germany). […] As a read-out for the generation of primed high avidity antigen specific cells, pMHC-tetramer staining was performed as above and analyzed on a four-color FACSCalibur (BD Biosciences, Germany).

The subject of assay [2] is CD8+ T cells of healthy HLA-A*02+ donors. As to the kind of experiment: In vitro priming of CD8+ T cells with pMHC/anti-CD28 coated beads (high density), tetramer analysis. The assay is classed as cell-based, human. The settings on record: for Immunogenicity detected: at least one well with ≥1% specific tetramer+ among CD8+ T-cells and ≥10× median of negative controls; for Positive donors/donors tested / Positive donors/donors tested (%) / Positive wells/wells tested / Positive wells/wells tested (%): high density beads. As for the experimental part: To perform in vitro stimulations by artificial antigen presenting cells (aAPC) loaded with peptide-MHC complex (pMHC) and anti-CD28 antibody, first PBMCs (peripheral blood mononuclear cells) were isolated from fresh HLA-A*02+ buffy coats by using standard density gradient separation medium (PAA, Cölbe, Germany). Buffy coats were either obtained from the Blood Bank Tübingen or from the Katharinenhospital Stuttgart. Isolated PBMCs were incubated overnight in T-cell medium (TCM) for human in vitro priming consisting of RPMI-Glutamax (Invitrogen, Karlsruhe, Germany) supplemented with 10% heat inactivated human AB serum (PAA, Cölbe, Germany), 100 U/ml Penicillin/100 μg/ml Streptomycin (Cambrex, Verviers, Belgium), 1 mM sodium pyruvate (CC Pro, Neustadt, Germany) and 20 μg/ml Gentamycin (Cambrex). CD8+ lymphocytes were isolated using the CD8+ MACS positive selection kit (Miltenyi, Bergisch Gladbach, Germany) according to the manufacturer's instructions. Obtained CD8+ T-cells were incubated until use in TCM supplemented with 2.5 ng/ml IL-7 (PromoCell, Heidelberg, Germany) and 10 U/ml IL-2 (Chiron, Munich, Gemany). Generation of pMHC/anti-CD28 coated beads, T-cell stimulations and readout was performed as described before (Walter, S, et al., 2003, J. Immunol., 171, 4974-4978) with minor modifications. Briefly, biotinylated recombinant HLA-A*0201 molecules lacking the transmembrane domain and being biotinylated at the carboxy terminus of the heavy chain were produced following a method described by (Altman, J D, et al., 1996, Science, 274, 94-96). The purified costimulatory mouse IgG2a anti human CD28 Ab 9.3 (Jung, G, Ledbetter, J A, and Muller-Eberhard, H J; 1987, Induction of cytotoxicity in resting human T lymphocytes bound to tumor cells by antibody heteroconjugates, Proc Natl Acad Sci USA, 84, 4611-4615) was chemically biotinylated using Sulfo-N-hydroxysuccinimidobiotin as recommended by the manufacturer (Perbio, Bonn, Germany).
800,000 beads/200 μl were coated in 96-well plates in the presence of 600 ng biotin anti-CD28 plus 200 ng relevant biotin-pMHC (high density beads) or 2 ng relevant plus 200 ng irrelevant (pMHC library) MHC (low density beads). Stimulations were initiated in 96-well plates by conincubating 1×10^6 CD8+ T cells with 2×10^5 washed coated beads in 200 μl TCM supplemented with 5 ng/ml IL-12 (PromoCell) for 3-4 days at 37° C. Half of the medium was then exchanged by fresh TCM supplemented with 80 U/ml IL-2 and incubation was continued for 3-4 days at 37° C. This stimulation cycle was performed for a total of three times. Finally, tetrameric analyses were performed with fluorescent MHC tetramers (produced as described by (Altman, J D, et al., 1996, Science, 274, 94-96)) plus antibody CD8-FITC clone SK1 (BD, Heidelberg, Germany) on a four-color FACSCalibur (BD). Peptide specific cells were calculated as percentage of total CD8+ T cells. Evaluation of tetrameric analysis was performed using the software FCS Express (De Novo Software). In vitro priming of specific tetramer+CD8+ lymphocytes was detected by appropriate gating and by comparison to negative control stimulations.
Peptides of the present invention were tested together with peptides of known in vivo immunogenicity for comparison. The CEA-005 peptide that was optimised for in vitro T-cell induction (Fong, L, et al., 2001, J. Immunol., 166, 4254-4259) served as control.
Results of in vitro immunogenicity experiments conducted by immatics are summarised here. Results shown have been obtained by stimulation of CD8+ cells with high density beads. As different human serum lots may highly affect the immunogenicity results, only assays in which one and the same serum lot was used, were evaluated together.

Ends that are not written are not given here.

As for ALFVRLLALA [TGFBI-001], in assay [1], the “establishment of specific high-avidity T-cell lines by FACS” value was “specific T-cell lines could be established by FACS” and the “in vitro immunogenicity with low pMHC density aAPCs” value is “immunogenic in vitro”. Besides, in assay [2], the Immunogenicity detected entry is given as “yes”, the Positive donors/donors tested was 3/4, the “Positive donors/donors tested (%)” value is “(75%)” and the Positive wells/wells tested is listed as 4/22. Further, in assay [2], the “Positive wells/wells tested (%)” value was “(18%)”.

ILAPVILYI [NOX-001]: in assay [1], the “establishment of specific high-avidity T-cell lines by FACS” value is on record as “specific T-cell lines could be established by FACS” and the “in vitro immunogenicity with low pMHC density aAPCs” value is listed as “immunogenic in vitro”. In assay [2], the Immunogenicity detected result is “yes”, the Positive donors/donors tested is reported as 3/5, the “Positive donors/donors tested (%)” value is reported as “(60%)” and the Positive wells/wells tested is recorded as 9/60. Further, the “Positive wells/wells tested (%)” value in assay [2] was “(15%)”.

The record behind these values is patent publication US9950048B2, “Immunogenic epitopes for immunotherapy” (immatics biotechnologies GmbH, priority 2007, dated 2018).
